From ChEMBL document CHEMBL1201862, “PubChem BioAssay data set” (2004)
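Each compound was tested at five concentrations against cells in 96-well plates for 48 hours. The concentration for 50% growth inhibition is given as GI50.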 Activity calls are given as the source filed them. Cut-off read from the data, not from the text of the source: active = GI50 up to about 1.1 µM and inactive = higher.

Tests used:
Experiment in all cases: growth of human tumour cells (NCI), 48 h
LOX IMVI = test system: LOX IMVI
A549 = test system: A549
IGROV-1 = test system: IGROV-1
U-251 = test system: U-251
SNB-19 = test system: SNB-19
SK-MEL-2 = test system: SK-MEL-2
SNB-75 = test system: SNB-75
SW-620 = test system: SW-620
UO-31 = test system: UO-31
TK-10 = test system: TK-10
MCF7 = test system: MCF7
DU-145 = test system: DU-145
NCI-H460 = test system: NCI-H460
SK-MEL-5 = test system: SK-MEL-5
RPMI-8226 = test system: RPMI-8226
SK-MEL-28 = test system: SK-MEL-28
OVCAR-3 = test system: OVCAR-3
MDA-MB-435 = test system: MDA-MB-435
A498 = test system: A498
SF-295 = test system: SF-295

SMILES | GI50 (LOX IMVI) | GI50 (A549) | GI50 (IGROV-1) | GI50 (U-251) | GI50 (SNB-19) | GI50 (SK-MEL-2) | GI50 (SNB-75) | GI50 (SW-620) | GI50 (UO-31) | GI50 (TK-10) | GI50 (MCF7) | GI50 (DU-145) | GI50 (NCI-H460) | GI50 (SK-MEL-5) | GI50 (RPMI-8226) | GI50 (SK-MEL-28) | GI50 (OVCAR-3) | GI50 (MDA-MB-435) | GI50 (A498) | GI50 (SF-295)
CCOC(=O)c1cc2c([N+](=O)[O-])c(N)ccc2s1 | > 100 µM (inactive) | > 100 µM (inactive) | > 100 µM (inactive) | > 100 µM (inactive) | > 100 µM (inactive) | > 100 µM (inactive) | 72.3 µM (inactive) | > 100 µM (inactive) | > 100 µM (inactive) | > 100 µM (inactive) | > 100 µM (inactive) | > 100 µM (inactive) | > 100 µM (inactive) | > 100 µM (inactive) | > 100 µM (inactive) | > 100 µM (inactive) | > 100 µM (inactive) | > 100 µM (inactive) | > 100 µM (inactive) | > 100 µM (inactive)
S=C1c2ccc(Cl)cc2-n2cnnc2C2CSCN12 (stereo not given) | > 100 µM (inactive) | > 100 µM (inactive) | > 100 µM (inactive) | > 100 µM (inactive) | > 100 µM (inactive) | > 100 µM (inactive) | > 100 µM (inactive) | > 100 µM (inactive) | > 100 µM (inactive) | > 100 µM (inactive) | > 100 µM (inactive) | > 100 µM (inactive) | > 100 µM (inactive) | > 100 µM (inactive) | > 100 µM (inactive) | > 100 µM (inactive) | > 100 µM (inactive) | 95.1 µM (inactive) | > 100 µM (inactive) | > 100 µM (inactive)
C=C(CN(C)C)C(=O)c1ccc(OC)cc1 | 4.49 µM (inactive) | 18.2 µM (inactive) | 10.7 µM (inactive) | 10.3 µM (inactive) | 20 µM (inactive) | 4.61 µM (inactive) | 15.5 µM (inactive) | 0.771 µM (active) | 2.55 µM (inactive) | 2.24 µM (inactive) | 2.77 µM (inactive) | 4.97 µM (inactive) | 21.8 µM (inactive) | 8.24 µM (inactive) | 2.11 µM (inactive) | 3.49 µM (inactive) | 2.77 µM (inactive) | 10.5 µM (inactive) | 9.79 µM (inactive) | 28.5 µM (inactive)
